In ChEMBL document CHEMBL6114969, “Ultra-short lipopeptides containing d-amino acid exhibiting excellent stability and antibacterial activity against gram-positive bacteria” (Eur J Med Chem, 2025):
Converted amounts (≈) assume the structure as drawn. The source made the active and inactive calls. No cut-off for these calls is given here.

Experiments:
[1] = Toxicity in Balb/c mouse assessed as change in key organs appearance at 20 to 40 mg/kg, ip measured after 7 days; format: organism-based; details: in vivo, 168 h, dose 20-40 mg/kg, time 7 day
[2] = Toxicity in Balb/c mouse assessed as change in lung co-efficient at 20 to 80 mg/kg, ip measured after 7 days; format: organism-based; details: in vivo, 168 h, dose 20-80 mg/kg, time 7 day
[3] = Toxicity in Balb/c mouse assessed as body weight change at 20 to 80 mg/kg, ip measured after 7 days; format: organism-based; details: in vivo, 168 h, dose 20-80 mg/kg, time 7 day
Staphylococcus aureus [4] = test: Induction of morphological changes in methicillin-resistant Staphylococcus aureus ATCC 33591 assessed as irregular atrophy at 2 times MIC incubated for 2 hrs by SEM analysis; format: functional, organism-based
Staphylococcus aureus [5] = test: Synergistic bactericidal activity against persistent methicillin-resistant Staphylococcus aureus ATCC 33591 at high concentration incubated for 18 to 24 hrs in presence of gentamycin by time-kill assay; format: functional, organism-based; details: time 18-24 hrs
Staphylococcus aureus [6] = test: Antibacterial activity against methicillin-resistant Staphylococcus aureus ATCC 33591 infected in Balb/c mouse model of acute systemic infection assessed as tissue damage repair at 10 mg/kg, ip measured after 5 days in presence of polymyxin B by H and E staining based analysis; format: functional, organism-based; details: time 5.0 day
Staphylococcus aureus [7] = test: Antibacterial activity against ciprofloxacin-resistant Staphylococcus aureus ATCC 25923 incubated for 18 to 24 hrs; format: functional; details: time 18-24 hrs
Staphylococcus aureus [8] = test: Antibacterial activity against methicillin-resistant Staphylococcus aureus ATCC 33591 infected in Balb/c mouse model of skin wound infection assessed as crusted back wound at 10 mg/kg, ip administered thrice at 1, 24 and 48 hrs post-infection measured after 9 days relative to control; format: functional; details: time 9 day
Enterococcus faecalis = test: Antibacterial activity against Enterococcus faecalis ATCC 29212 incubated for 18 to 24 hrs by broth microdilution method; format: functional; details: time 18-24 hrs
Staphylococcus aureus [9] = test: Antibacterial activity against methicillin-resistant Staphylococcus aureus ATCC 33591 infected in Balb/c mouse model of acute systemic infection assessed as reduction in bleeding in liver at 10 mg/kg, ip measured after 5 days by H and E staining based analysis; format: functional, organism-based; details: time 5.0 day
[10] = Toxicity in Balb/c mouse assessed as change in serum AST level at 20 to 80 mg/kg, ip measured after 7 days; format: organism-based; details: in vivo, 168 h, dose 20-80 mg/kg, time 7 day
Staphylococcus aureus [11] = test: Antibacterial activity against methicillin-resistant Staphylococcus aureus ATCC 33591 incubated for 18 to 24 hrs in presence of 1 mg/ml of chymotrypsin by broth microdilution method; format: functional; details: time 18-24 hrs
Staphylococcus aureus [12] = test: Induction of ROS production in methicillin-resistant Staphylococcus aureus ATCC 33591 at 4 times MIC measured upto 360 mins in presence of NAC by DCFH-DA dye based analysis; format: functional, organism-based
Staphylococcus aureus [13] = test: Synergistic bactericidal activity against methicillin-resistant Staphylococcus aureus ATCC 33591 incubated for 18 to 24 hrs in presence of Polymyxin B by time-kill assay; format: functional, organism-based; details: time 18-24 hrs
Staphylococcus aureus [14] = test: Antibacterial activity against methicillin-resistant Staphylococcus aureus ATCC 33591 incubated for 18 to 24 hrs in presence of 2 mg/ml of chymotrypsin by broth microdilution method; format: functional; details: time 18-24 hrs
[15] = Toxicity in Balb/c mouse assessed as change in liver co-efficient at 20 to 80 mg/kg, ip measured after 7 days; format: organism-based; details: in vivo, 168 h, dose 20-80 mg/kg, time 7 day
Staphylococcus aureus [16] = test: Antibacterial activity against methicillin-resistant Staphylococcus aureus ATCC 33591 infected in Balb/c mouse model of skin wound infection assessed as wound heal at 10 mg/kg, ip administered thrice at 1, 24 and 48 hrs post-infection measured after 14 days in presence of polymyxin B relative to control; format: functional; details: time 14 day
Staphylococcus aureus [17] = test: Antibacterial activity against methicillin-resistant Staphylococcus aureus ATCC 33591 incubated for 18 to 24 hrs in presence of 0.5 mg/ml of pepsin by broth microdilution method; format: functional; details: time 18-24 hrs
Staphylococcus aureus [18] = test: Inhibition of ciprofloxacin-induced drug resistance in Staphylococcus aureus ATCC 25923 at sub-MIC measured upto 15 passages; format: functional, organism-based
Staphylococcus aureus [19] = test: Antibacterial activity against methicillin-resistant Staphylococcus aureus ATCC 33591 infected in Balb/c mouse model of acute systemic infection assessed as reduction in bacterial count in kidney at 10 mg/kg, ip measured after 5 days; format: functional, organism-based; details: time 5.0 day
Staphylococcus aureus [20] = test: Induction of morphological changes in methicillin-resistant Staphylococcus aureus ATCC 33591 assessed as content leakage at 4 times MIC incubated for 2 hrs by SEM analysis; format: functional, organism-based
[21] = Toxicity in Balb/c mouse assessed as survival rate at 20 to 40 mg/kg, ip measured after 7 days; format: organism-based; details: in vivo, dose 20-40 mg/kg, time 7 day
Staphylococcus aureus [22] = test: Destruction of cell membrane in methicillin-resistant Staphylococcus aureus ATCC 33591 measured upto 360 mins by absorbance based assay; format: functional, organism-based
Staphylococcus aureus [23] = test: Antibacterial activity against methicillin-resistant Staphylococcus aureus ATCC 33591 infected in Balb/c mouse model of acute systemic infection assessed as reduction in hypoplasia of white pulp in spleen at 10 mg/kg, ip measured after 5 days by H and E staining based analysis; format: functional, organism-based; details: time 5.0 day
[24] = Toxicity in Balb/c mouse assessed as change in heart co-efficient at 20 to 80 mg/kg, ip measured after 7 days; format: organism-based; details: in vivo, 168 h, dose 20-80 mg/kg, time 7 day
Staphylococcus aureus [25] = test: Synergistic antibacterial activity against methicillin-resistant Staphylococcus aureus ATCC 33591 assessed as fractional inhibitory concentration index upto 2 times MIC incubated for 18 to 24 hrs in presence of polymyxin B by checkerboard assay; format: functional; details: time 18-24 hrs
Staphylococcus aureus [26] = test: Induction of cytoplasmic membrane depolarization in methicillin-resistant Staphylococcus aureus ATCC 33591 incubated upto 20 mins by DiSC3-5 dye based analysis; format: functional, organism-based
Staphylococcus aureus [27] = test: Inhibition of imipenem-induced drug resistance in Staphylococcus aureus ATCC 25923 at sub-MIC measured upto 15 passages; format: functional, organism-based
Staphylococcus aureus [28] = test: Antibacterial activity against methicillin-resistant Staphylococcus aureus ATCC 33591 incubated for 18 to 24 hrs in presence of 2 mg/ml of trypsin by broth microdilution method; format: functional; details: time 18-24 hrs
Staphylococcus aureus [29] = test: Antibacterial activity against methicillin-resistant Staphylococcus aureus ATCC 33591 infected in Balb/c mouse model of acute systemic infection assessed as reduction in bleeding in kidney at 10 mg/kg, ip measured after 5 days by H and E staining based analysis; format: functional, organism-based; details: time 5.0 day
[30] = Toxicity in Balb/c mouse assessed as change in kidney co-efficient at 20 to 80 mg/kg, ip measured after 7 days; format: organism-based; details: in vivo, 168 h, dose 20-80 mg/kg, time 7 day
[31] = Toxicity in Balb/c mouse assessed as inflammatory cell infiltration in liver at 80 mg/kg, ip measured after 7 days by H and E staining based analysis; format: organism-based; details: in vivo, 168 h, time 7 day
Staphylococcus aureus [32] = test: Bactericidal activity against methicillin-resistant Staphylococcus aureus ATCC 33591 at 4 times MIC incubated for 24 hrs in presence of 4 ug/ml LPS by absorbance based assay; format: functional, organism-based
Staphylococcus aureus [33] = test: Inhibition of imipenem-induced drug resistance in […] Staphylococcus aureus ATCC 33591 at sub-MIC measured upto 15 passages; format: functional, organism-based
Staphylococcus aureus [34] = test: Antibacterial activity against methicillin-resistant Staphylococcus aureus ATCC 33591 infected in Balb/c mouse model of acute systemic infection assessed as reduction in cell swelling in liver at 10 mg/kg, ip measured after 5 days by H and E staining based analysis; format: functional, organism-based; details: time 5.0 day

CCCCCCCCCCCC(=O)N[C@H](CCCNC(=N)N)C(=O)N[C@H](CCCNC(=N)N)C(=O)N[C@H](Cc1c[nH]c2ccccc12)C(=O)O
Activity [1]: Non-toxic | Activity [2]: Non-toxic | Activity [3]: Non-toxic | Activity (Staphylococcus aureus [4]): Active | Activity (Staphylococcus aureus [5]): Active | Activity (Staphylococcus aureus [6]): Active; Compound In Combination Exerted Better Activity Than Polymyxin B Treatment Alone | MIC (Staphylococcus aureus [7]): 8 µM (≈ 5.59 µg/mL) | Activity (Staphylococcus aureus [8]): 100% | MIC (Enterococcus faecalis): 8 µM (≈ 5.59 µg/mL) | Activity (Staphylococcus aureus [9]): Active | Activity [10]: Non-toxic | MIC (Staphylococcus aureus [11]): 4 µM | Activity (Staphylococcus aureus [12]): inactive | Activity (Staphylococcus aureus [13]): Active; Compound Exhibited Better Effect Than Compound Alone-Treatment; Although It Was Lower Than Polymyxin B, It Significantly Reduced Dosage Of Polymyxin B And Reduced Toxicity Of The Drug | MIC (Staphylococcus aureus [14]): 4 µM | Activity [15]: Toxic | Activity (Staphylococcus aureus [16]): 100% | MIC (Staphylococcus aureus [17]): 8 µM | inhibition (Staphylococcus aureus [18]): Active | Activity (Staphylococcus aureus [19]): Active | Activity (Staphylococcus aureus [20]): Active | survival at 168 h [21]: 100% | Activity (Staphylococcus aureus [22]): Dose-dependent-effect | Activity (Staphylococcus aureus [23]): Active | Activity [24]: Non-toxic | fractional inhibitory concentration index (FICI) (Staphylococcus aureus [25]): 0.125 | Activity (Staphylococcus aureus [26]): Dose-dependent-effect; Compound Activity Was Slightly Weaker Than Triton X-100 | inhibition (Staphylococcus aureus [27]): Active | MIC (Staphylococcus aureus [28]): 4 µM | Activity (Staphylococcus aureus [29]): Active | Activity [30]: Toxic | Activity [31]: Toxic | Activity (Staphylococcus aureus [32]): inactive | inhibition (Staphylococcus aureus [33]): Active | Activity (Staphylococcus aureus [34]): Active
